US20070032545A1, “Antibiotic fki-1778 and process for producing the same” (priority 2004, published 2007)

How the values were obtained:
[1] = tested on: various microorganisms; assay: Growth inhibitory activity against various microorganisms (summary of Table 2); type: cell-based; details: result in words
Excerpt: Next, diameters of inhibition ring of antibiotic FKI-1778A, antibiotic FKI-1778B, antibiotic FKI-1778C and antibiotic FKI-1778D against various microorganisms on the nutrient agar medium are shown in Table 2.

[2] = tested on: nauplius larva of Artemia salina; assay: Anti-arthropod activity on nauplius larva in 96-well microplate; type: in vivo; details: observed microscopically after 2 days
Procedure: Next, anti-arthropod activities of antibiotic FKI-1778 10 of the present invention are described hereinbelow. Methanol solution of each antibiotic FKI-1778 was placed in the microplate (96 wells) (Corning Corp., the U.S.). […] The buffer solution 50 μl containing several numbers of nauplius larva of Artemia salina, Arthropod, which was incubated in the buffer solution (Tris 20 mM, sodium chloride 440 mM, magnesium chloride 23 mM, sodium carbonate 1.9 mM, magnesium sulfate 53 mM and calcium chloride 10 mM), was added to each well, and the condition thereof was observed microscopically after 2 days.

[3] = tested on: human leukemia cell strain Jurkat cell; assay: Cell cycle G1 phase terminating activity, DNA content by flow cytometer; type: cell-based; details: Jurkat cells, 5 μg added to 200 μl medium, 24 hours; for G2/M phase: No addition 22.3; for G1 phase: No addition 53.2
Procedure: Further, a terminating activity of antibiotic FKI-1778 of the present invention against cell cycle G1 phase in cancer cells is explained as follows. Using 96-well microplate (Corning Corp., the U.S.), human leukemia cell strain Jurkat cell, 5×10^5 cells/well, was inoculated into RPMI 1640 medium (IWAKI Corp., Japan) 200 μl containing a mixture of 10% fetal bovine serum and 1% penicillin (10,000 units/ml)—streptomycin (10 mg/ml) (Invitrogen Inc., the U.S.) and cultured. Antibiotic FKI-1778, 5 μg, was added thereto, and the mixture was incubated at 37° C. for 24 hours under 5% CO2 atmosphere, and the culture supernatant was discarded. Cells were suspended in 0.1% aqueous sodium citrate solution (200 μl) containing 0.002% ribonuclease A (Sigma Corp., the U.S.), 0.005% propidium iodide (Sigma Corp., the U.S.) and 0.3 ml/100 ml IGEPAL-CA-630 (Sigma Corp., the U.S.). After the cell suspension was allowed to stand for 2 hours or more, DNA contents in 10,000 cells were measured by using flow cytometer (FACS Calibur, Becton, Dickinson and Company, the U.S.), then DNA contents of cells in G1 phase, S phase and G2/M phase were measured by using software, Cell Quest (Becton, Dickinson and Company, the U.S.).

Row | Structure (SMILES) | growth inhibitory activities against various microorganisms [1] | Anti-arthropod activity [2] | G2/M phase [3] | G1 phase [3]
1 | C=C1CCC2C(C)(CC/C=C(\C)C(=O)O)C(OC(C)=O)CCC2(C)C1Cc1c(O)c(C)c(C)oc1=O (stereo not shown) [FKI-1778A] | no growth inhibitory activities | >200 µg/mL | 12.8% | 62.4%
2 | C=C1CCC2C(C)(CC/C=C(\C)CO)C(OC(C)=O)CCC2(C)C1Cc1c(O)c(C)c(C)oc1=O (stereo not shown) [FKI-1778B] | no growth inhibitory activities | 100 µg/mL | 12.0% | 55.0%
3 | C=C(C)C(O)CCC1(C)C(OC(C)=O)CCC2(C)C(Cc3c(O)c(C)c(C)oc3=O)C(=C)CCC12 (stereo not shown) [FKI-1778C] | no growth inhibitory activities | >200 µg/mL | 13.0% | 64.2%
4 | C=C1CCC2C(C)(CC/C=C(/C)CO)C(OC(C)=O)CCC2(C)C1Cc1c(O)c(C)c(C)oc1=O (stereo not shown) [FKI-1778D] | no growth inhibitory activities | 100 µg/mL | 9.9% | 63.9%
